Reference: ChEMBL document CHEMBL3885881, “DrugMatrix”

Species on record: Rattus norvegicus
Assay: DrugMatrix - Regimen: Daily Repeat
Format: toxicity, organism-based, Sprague-Dawley
Design: regimen Daily Repeat, gender Male, age 6-8 weeks
Conditions: in vivo, po, route oral GAVAGE, […]; for ABSOLUTE BASOPHIL / ABSOLUTE EOSINOPHIL / ABSOLUTE LYMPHOCYTE / ABSOLUTE MONOCYTE / ABSOLUTE SEGMENTED NEUTROPHIL / BASOPHIL / EOSINOPHIL / ERYTHROCYTE COUNT / HEMATOCRIT / HEMOGLOBIN / LEUKOCYTE COUNT / LYMPHOCYTE / MEAN CORPUSCULAR HEMOGLOBIN / MEAN CORPUSCULAR HEMOGLOBIN CONCENTRATION / MEAN CORPUSCULAR VOLUME / MONOCYTE / NEUTROPHIL / NUCLEATED RED BLOOD CELLS / PLATELET COUNT: tissue Blood; for ALANINE AMINOTRANSFERASE / ALBUMIN / ALKALINE PHOSPHATASE / ASPARTATE AMINOTRANSFERASE / BLOOD UREA NITROGEN / CARBON DIOXIDE / CHLORIDE / CHOLESTEROL / CREATINE PHOSPHOKINASE / CREATININE / GLUCOSE / LACTATE DEHYDROGENASE / LIPASE / PHOSPHORUS / POTASSIUM / SODIUM / TOTAL BILIRUBIN / TOTAL PROTEIN / URIC ACID: tissue Plasma
[1] = 3 mg/kg, 120 h, dose level Low, time 5 day
[2] = 110 mg/kg, 72 h, dose level High, time 3 day
[3] = 110 mg/kg, 120 h, dose level High, time 5 day

Cc1cccc(Nc2ccncc2S(=O)(=O)NC(=O)NC(C)C)c1 [TORSEMIDE]
ABSOLUTE BASOPHIL [1]: 0 CELLS/uL
ABSOLUTE EOSINOPHIL [1]: 64 CELLS/uL
ABSOLUTE LYMPHOCYTE [1]: 7502 CELLS/uL
ABSOLUTE MONOCYTE [1]: 142 CELLS/uL
ABSOLUTE SEGMENTED NEUTROPHIL [1]: 525.33 CELLS/uL
BASOPHIL [1]: 0%
EOSINOPHIL [1]: 0.67%
ERYTHROCYTE COUNT [1]: 5.57 x10E6/uL
HEMATOCRIT [1]: 35.4%
HEMOGLOBIN [1]: 13.63 G/DL
LEUKOCYTE COUNT [1]: 8.23 x10E3/uL
LYMPHOCYTE [1]: 91.33%
MEAN CORPUSCULAR HEMOGLOBIN [1]: 24.57 pg
MEAN CORPUSCULAR HEMOGLOBIN CONCENTRATION [1]: 38.5 G/DL
MEAN CORPUSCULAR VOLUME [1]: 63.67 fL
MONOCYTE [1]: 1.67%
NEUTROPHIL [1]: 6.33%
NUCLEATED RED BLOOD CELLS [1]: 0 /100WBC
PLATELET COUNT [1]: 1174 x10E3/uL
ALANINE AMINOTRANSFERASE [1]: 54.67 u/L
ALBUMIN [1]: 4 G/DL
ALKALINE PHOSPHATASE [1]: 376.67 u/L
ASPARTATE AMINOTRANSFERASE [1]: 76 u/L
BLOOD UREA NITROGEN [1]: 11.67 mg/dL
CARBON DIOXIDE [1]: 31.33 mmol/L
CHLORIDE [1]: 100 MEQ/L
CHOLESTEROL [1]: 63.67 mg/dL
CREATINE PHOSPHOKINASE [1]: 293.67 u/L
CREATININE [1]: 0.14 mg/dL
GLUCOSE [1]: 148.67 mg/dL
LACTATE DEHYDROGENASE [1]: 190.33 u/L
LIPASE [1]: 10.33 u/L
PHOSPHORUS [1]: 11.3 mg/dL
POTASSIUM [1]: 6.36 MEQ/L
SODIUM [1]: 144.87 MEQ/L
TOTAL BILIRUBIN [1]: 0.17 mg/dL
TOTAL PROTEIN [1]: 6.03 G/DL
URIC ACID [1]: 0.47 mg/dL
ABSOLUTE BASOPHIL [2]: 0 CELLS/uL
ABSOLUTE EOSINOPHIL [2]: 0 CELLS/uL
ABSOLUTE LYMPHOCYTE [2]: 16133.33 CELLS/uL
ABSOLUTE MONOCYTE [2]: 63.33 CELLS/uL
ABSOLUTE SEGMENTED NEUTROPHIL [2]: 1136.67 CELLS/uL
BASOPHIL [2]: 0%
EOSINOPHIL [2]: 0%
ERYTHROCYTE COUNT [2]: 5.8 x10E6/uL
HEMATOCRIT [2]: 36.3%
HEMOGLOBIN [2]: 14.23 G/DL
LEUKOCYTE COUNT [2]: 17.33 x10E3/uL
LYMPHOCYTE [2]: 93.33%
MEAN CORPUSCULAR HEMOGLOBIN [2]: 24.53 pg
MEAN CORPUSCULAR HEMOGLOBIN CONCENTRATION [2]: 39.23 G/DL
MEAN CORPUSCULAR VOLUME [2]: 62.57 fL
MONOCYTE [2]: 0.33%
NEUTROPHIL [2]: 6.33%
NUCLEATED RED BLOOD CELLS [2]: 0 /100WBC
PLATELET COUNT [2]: 1008.33 x10E3/uL
ALANINE AMINOTRANSFERASE [2]: 60.33 u/L
ALBUMIN [2]: 4.17 G/DL
ALKALINE PHOSPHATASE [2]: 282 u/L
ASPARTATE AMINOTRANSFERASE [2]: 86 u/L
BLOOD UREA NITROGEN [2]: 29.33 mg/dL
CARBON DIOXIDE [2]: 33.33 mmol/L
CHLORIDE [2]: 93.33 MEQ/L
CHOLESTEROL [2]: 69.33 mg/dL
CREATINE PHOSPHOKINASE [2]: 98.67 u/L
CREATININE [2]: 0.32 mg/dL
GLUCOSE [2]: 148 mg/dL
LACTATE DEHYDROGENASE [2]: 104.67 u/L
LIPASE [2]: 12 u/L
PHOSPHORUS [2]: 8.13 mg/dL
POTASSIUM [2]: 5.2 MEQ/L
SODIUM [2]: 142.37 MEQ/L
TOTAL BILIRUBIN [2]: 0.2 mg/dL
TOTAL PROTEIN [2]: 5.37 G/DL
URIC ACID [2]: 1.2 mg/dL
ABSOLUTE BASOPHIL [3]: 0 CELLS/uL
ABSOLUTE EOSINOPHIL [3]: 0 CELLS/uL
ABSOLUTE LYMPHOCYTE [3]: 12824.33 CELLS/uL
ABSOLUTE MONOCYTE [3]: 353.67 CELLS/uL
ABSOLUTE SEGMENTED NEUTROPHIL [3]: 788.67 CELLS/uL
BASOPHIL [3]: 0%
EOSINOPHIL [3]: 0%
ERYTHROCYTE COUNT [3]: 6.15 x10E6/uL
HEMATOCRIT [3]: 38.4%
HEMOGLOBIN [3]: 14.97 G/DL
LEUKOCYTE COUNT [3]: 13.97 x10E3/uL
LYMPHOCYTE [3]: 92%
MEAN CORPUSCULAR HEMOGLOBIN [3]: 24.37 pg
MEAN CORPUSCULAR HEMOGLOBIN CONCENTRATION [3]: 38.97 G/DL
MEAN CORPUSCULAR VOLUME [3]: 62.5 fL
MONOCYTE [3]: 2.33%
NEUTROPHIL [3]: 5.67%
NUCLEATED RED BLOOD CELLS [3]: 0.33 /100WBC
PLATELET COUNT [3]: 1188.33 x10E3/uL
ALANINE AMINOTRANSFERASE [3]: 70 u/L
ALBUMIN [3]: 4.5 G/DL
ALKALINE PHOSPHATASE [3]: 395.67 u/L
ASPARTATE AMINOTRANSFERASE [3]: 104 u/L
BLOOD UREA NITROGEN [3]: 29 mg/dL
CARBON DIOXIDE [3]: 38.33 mmol/L
CHLORIDE [3]: 86.33 MEQ/L
CHOLESTEROL [3]: 65.33 mg/dL
CREATINE PHOSPHOKINASE [3]: 234.67 u/L
CREATININE [3]: 0.3 mg/dL
GLUCOSE [3]: 176 mg/dL
LACTATE DEHYDROGENASE [3]: 220.33 u/L
LIPASE [3]: 10.67 u/L
PHOSPHORUS [3]: 8.93 mg/dL
POTASSIUM [3]: 4.3 MEQ/L
SODIUM [3]: 142.87 MEQ/L
TOTAL BILIRUBIN [3]: 0.1 mg/dL
TOTAL PROTEIN [3]: 6.83 G/DL
URIC ACID [3]: 0.6 mg/dL
